{
  "source": "paper PMC4467156",
  "about": "“A new chemical inhibitor of angiogenesis and tumorigenesis that targets the VEGF signaling pathway upstream of Ras” (Oncotarget, 2015)",
  "key": {"PKCβII": {"biological_target": "PKCβII (Homo sapiens, UniProt P05771)", "sequence (P05771 1-673 isoform P05771-2)": "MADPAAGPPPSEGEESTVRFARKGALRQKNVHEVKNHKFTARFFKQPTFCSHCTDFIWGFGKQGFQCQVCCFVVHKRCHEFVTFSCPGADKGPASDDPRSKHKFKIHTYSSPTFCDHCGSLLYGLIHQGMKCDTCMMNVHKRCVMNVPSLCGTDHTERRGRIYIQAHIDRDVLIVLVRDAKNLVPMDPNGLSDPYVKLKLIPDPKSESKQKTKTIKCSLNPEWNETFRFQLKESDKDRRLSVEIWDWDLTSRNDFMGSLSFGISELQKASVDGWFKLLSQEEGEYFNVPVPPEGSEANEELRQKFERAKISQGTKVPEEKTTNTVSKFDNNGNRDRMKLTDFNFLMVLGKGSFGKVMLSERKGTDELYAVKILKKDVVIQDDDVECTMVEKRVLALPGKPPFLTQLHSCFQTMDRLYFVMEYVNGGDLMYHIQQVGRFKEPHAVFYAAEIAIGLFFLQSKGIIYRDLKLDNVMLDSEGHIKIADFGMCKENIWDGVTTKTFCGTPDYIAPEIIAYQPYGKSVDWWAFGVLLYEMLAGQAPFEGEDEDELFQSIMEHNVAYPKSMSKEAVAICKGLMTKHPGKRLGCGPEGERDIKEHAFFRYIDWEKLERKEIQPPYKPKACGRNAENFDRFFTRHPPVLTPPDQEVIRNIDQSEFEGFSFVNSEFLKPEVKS", "test": "In vitro kinase assay PKCβII", "format": "biochemical", "settings": "concentrations up to 50 μM", "protocol": "We first wondered whether COB223 required to be internalized to exert its biological effect. For this, we synthesized a covalent complex between BSA and COB223 and purified it. […] In vitro kinase assays were performed with a panel of purified protein-kinases involved in mitogenic signaling, including VEGFR2, FGFR1, FGFR2, PDGFRß, Met, Raf, MEK1, ERK1, ERK2, PKCα, PKCβI, PKCβII, PKCζ as indicated in Table 2. […] We then analyzed the effect of COB223 on VEGF-induced phosphorylations of VEGFR2, MEK and ERK1/2 (Figure 9). […] (Figure 9A, 9B). […] It was also specific of the p42/p44 MAP kinase pathway as activation of p38 MAP kinase phosphorylation in HUVEC cells by VEGF or serum was unaffected by COB223 (data not shown). The activation of src phosphorylation by VEGF in HUVECs was also unaffected by COB223 (data not shown)."}, "PLCγ phosphorylation": {"test_system": "PLCγ phosphorylation", "test": "Western blot, PLCγ phosphorylation in HUVEC", "format": "cell-based, human", "settings": "10 ng/mL VEGF-A 15 min, 25 μM COB223", "protocol": "Figure 11 Effect of COB223 on mitogenic or oncogenic activation of the Ras /MEK/ERK signaling pathway (A) Serum-starved HUVEC cells were incubated for 15 min in the presence of 10 ng/mL VEGF-A and in the absence or the presence of 25 μM COB223. The phosphorylations of PLCγ on tyrosine 783, of Raf on serine 338 or on serine 259 and of ERK1/2 were then analyzed by Western blot analysis of the cell lysates as described in Material and Methods. Western blots for total PLCγ, Raf and ERK1/2 were used as loading controls. (B) MCF10A cells overexpressing an oncogenic version of Ras (MCF10A-RasG12V) were treated for the indicated periods of time by 25 μM COB223. Total ERK1/2 and phospho-ERK1/2 were then visualized by Western blotting of the cell extracts. Non-treated regular MCF10A cells were analyzed as a control (first lane). (C) CCL-39 fibroblasts expressing a constitutively active Raf in an estrogen-responsive manner were stimulated for 3 h with estradiol and treated for 15 or 30 min with 25 μM COB223. Total ERK1/2 and phospho-ERK1/2 were then visualized by Western blotting of the cell extracts. Non-treated cells were analyzed as a control (left lanes).\nSerum-starved HUVEC cells were incubated for 15 min in the presence of either 10 ng/mL VEGF-A or 20 ng/mL FGF-2 and in the absence or the presence of indicated concentration of COB223. COB223 was incubated 15 min prior to stimulation. […]"}, "VEGFR2 phosphorylation": {"test_system": "VEGFR2 phosphorylation", "test": "Western blot, VEGFR2 autophosphorylation in HUVEC", "format": "cell-based, human", "settings": "10 ng/mL VEGF-A 15 min, 25 μM COB223", "protocol": "Figure 9 Effect of COB223 on growth factor-induced VEGF-R2, MEK and ERK phosphorylations (A) Serum-starved HUVEC cells were incubated for 15 min in the presence of either 10 ng/mL VEGF-A or 20 ng/mL FGF-2 and in the absence or the presence of 25 μM COB223. The phosphorylations of VEGFR2 on tyrosine 1175 or tyrosine 1214, of MEK and ERK1/2 were then analyzed by Western blot analysis of the cell lysates as described in Material and Methods. Western blots for total VEGFR2, MEK and ERK1/2 were used as loading controls. The blots shown in Figure 9A were obtained in one representative experiment. (B) The hybridization signals observed in 5 similar but independent experiments were quantitated and the ratios between phospho-VEGFR2(Y1175) or (Y1214) and VEGFR2 signals were normalized to the value observed in the absence of COB223. (C) The hybridization signals observed in 5 similar but independent experiments were quantitated and the ratios between phospho-ERK1/2 and ERK1/2 and between phospho-MEK and MEK were normalized to the values observed in the absence of COB223. Additional experiments performed with 10% fetal calf serum (FCS) as a mitogen were included in this analysis. * : p < 0.05; ** : p < 0.01\nSerum-starved HUVEC cells were incubated for 15 min in the presence of either 10 ng/mL VEGF-A or 20 ng/mL FGF-2 and in the absence or the presence of indicated concentration of COB223. […]"}},
  "data": [
    {"smiles": "CN(C)c1cccc2c(S(=O)(=O)NCCCN3CCN(CCCNC(=O)OC(C)(C)C)CC3)cccc12", "note": "[COB223, tert-Butyl 3-(4-(3-(5-(dimethylamino)naphthalene-1-sulfonamido)propyl)piperazin-1-yl) propylcarbamate]", "values": [
      {"measurement": "kinase inhibition", "setting": "PKCβII", "result": "None of them was inhibited"},
      {"measurement": "VEGF-induced tyrosine phosphorylation of PLCγ on residue Y783", "setting": "PLCγ phosphorylation", "result": "unaffected"},
      {"measurement": "autophosphorylation of VEGFR2 on tyrosine 1175", "setting": "VEGFR2 phosphorylation", "result": "did not alter"},
      {"measurement": "autophosphorylation of VEGFR2 on tyrosine 1214", "setting": "VEGFR2 phosphorylation", "result": "did not alter"}
    ]}
  ]
}
